Experimental data from PMC5626787, “Mouse Nudt13 is a Mitochondrial Nudix Hydrolase with NAD(P)H Pyrophosphohydrolase Activity” (The Protein Journal, 2017).

Target: T1, Nudt13 (Mus musculus, UniProt Q8JZU0)
T1 construct: baculovirus, High Five insect cells
T1 sequence (Q8JZU0 1-352): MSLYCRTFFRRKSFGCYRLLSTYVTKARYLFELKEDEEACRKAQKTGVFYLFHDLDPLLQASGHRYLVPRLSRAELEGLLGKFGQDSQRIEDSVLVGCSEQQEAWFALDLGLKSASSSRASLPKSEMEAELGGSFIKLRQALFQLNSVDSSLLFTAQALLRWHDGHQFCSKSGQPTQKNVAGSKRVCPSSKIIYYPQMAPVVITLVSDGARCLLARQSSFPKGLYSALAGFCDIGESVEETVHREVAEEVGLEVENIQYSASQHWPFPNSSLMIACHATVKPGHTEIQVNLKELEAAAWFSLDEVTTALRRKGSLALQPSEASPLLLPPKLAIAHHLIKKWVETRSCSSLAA
Experiment: HPLC product analysis, non-linear regression, Michaelis-Menten
Assay type: biochemical
Details: 2 mM Mn2+, 50 mM Tris-HCl pH 8.0, 1 mM dithiothreitol, 37 °C; hydrolysis to NMNH and AMP
Experimental: HPLC product analysis, non-linear regression, Michaelis-Menten on Nudt13 | K m and k cat values were determined for NADH under optimal assay conditions

Km: 340 µM
Structure (SMILES): NC(=O)C1=CN([C@@H]2O[C@H](COP(=O)(O)OP(=O)(O)OC[C@H]3O[C@@H](n4cnc5c(N)ncnc54)[C@H](O)[C@@H]3O)[C@@H](O)[C@H]2O)C=CC1 [NADH]
